This passage reports IC50 results from US20250313563A1, “GLYCOGEN SYNTHASE KINASE 3 INHIBITORS AND USES THEREOF” (The Broad Institute, Inc., priority 2022, published 2025).

Where two headings read alike, the source gives them in different places. Some results are limits rather than exact numbers.

For assay [1], the target named is GSK3α (GST-full length GSK3α) (Homo sapiens (Human), UniProt P49840). Description: GSK3α TR-FRET kinase assay. Format: biochemical. Put shortly: (§1)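 In this time-resolved FRET format, kinase reactions contained 200 nM biotinylated, S645-phosphorylated glycogen synthase 631-650 peptide and either isoform-specific ATP (2 μM GSK3b, 4 μM GSK3α) or 1 mM ATP. They were quenched with EDTA after 100 min at ambient temperature. Inhibition curves gave IC50 values.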
Chain of GSK3α (GST-full length GSK3α) (P49840 whole entry, canonical isoform): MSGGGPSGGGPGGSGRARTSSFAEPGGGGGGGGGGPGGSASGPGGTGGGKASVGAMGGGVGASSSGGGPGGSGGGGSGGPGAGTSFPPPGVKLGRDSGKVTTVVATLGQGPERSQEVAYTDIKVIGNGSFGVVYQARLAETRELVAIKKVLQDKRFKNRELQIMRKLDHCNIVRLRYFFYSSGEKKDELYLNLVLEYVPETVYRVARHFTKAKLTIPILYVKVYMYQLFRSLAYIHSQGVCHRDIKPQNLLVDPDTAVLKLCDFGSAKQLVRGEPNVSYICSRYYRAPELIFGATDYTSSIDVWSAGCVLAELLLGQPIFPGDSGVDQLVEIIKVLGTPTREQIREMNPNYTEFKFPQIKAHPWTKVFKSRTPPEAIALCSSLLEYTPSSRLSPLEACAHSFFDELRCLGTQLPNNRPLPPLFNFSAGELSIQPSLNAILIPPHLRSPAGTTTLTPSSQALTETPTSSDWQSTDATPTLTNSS
(In general: Time-resolved FRET reads energy transfer from a long-lived donor to a nearby acceptor.)

Assay [2] concerns the target GSK3b (GST-full length GSK3b) (Homo sapiens (Human), UniProt P49841). Description: GSK3b TR-FRET kinase assay. Format: biochemical. The gist of the method:
as §1

[3] abbreviates: 1 nM GSK3α, 4 μM ATP, 30 minute preincubation, Table 16, read-out: GSK3-A TR-FRET BIOCHEMICAL (TR-FRET).
Where [4] appears, read: 1 nM GSK3b, 2 μM ATP, 30 minute preincubation, Table 16, read-out: GSK3-B TR-FRET BIOCHEMICAL (TR-FRET).
[5] abbreviates: 1 nM GSK3α, 4 μM ATP, 30 minute preincubation, Table 16, read-out: GSK3-A TR-FRET BIOCHEMICAL (TR-FRET), IC50.
Where [6] appears, read: 1 nM GSK3b, 2 μM ATP, 30 minute preincubation, Table 16, read-out: GSK3-B TR-FRET BIOCHEMICAL (TR-FRET), IC50.
[7] abbreviates: read-out: GSK3-A (TR-FRET 1 mM ATP), GMean, IC50, 1 mM ATP, geometric mean.
Setting [8] is: read-out: GSK3-B (TR-FRET 1 mM ATP), GMean, IC50, 1 mM ATP, geometric mean.

Chain of GSK3b (GST-full length GSK3b) (P49841 whole entry): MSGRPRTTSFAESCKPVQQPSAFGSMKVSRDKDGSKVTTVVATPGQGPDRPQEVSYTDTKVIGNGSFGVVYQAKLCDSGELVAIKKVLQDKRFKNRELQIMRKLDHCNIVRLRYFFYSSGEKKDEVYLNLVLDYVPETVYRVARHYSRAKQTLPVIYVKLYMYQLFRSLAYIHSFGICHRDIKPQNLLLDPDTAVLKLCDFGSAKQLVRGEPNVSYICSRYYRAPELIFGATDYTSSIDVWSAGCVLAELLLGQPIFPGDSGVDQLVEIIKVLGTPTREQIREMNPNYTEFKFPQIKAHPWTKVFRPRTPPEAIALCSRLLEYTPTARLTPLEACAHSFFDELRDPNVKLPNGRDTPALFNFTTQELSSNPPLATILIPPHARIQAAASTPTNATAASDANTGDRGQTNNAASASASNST

For the molecule `CCC1(c2cccc(C(F)(F)C(F)(F)F)c2)C2=C(CC(C)(C)CC2=O)Nc2n[nH]cc21` (centres unmarked) [Compound 949268], the results for the IC50 in assay [1] (setting [3]) and in assay [2] (setting [4]) were 1000 to 5000 nM and > 5000 nM, respectively.
For `CCC1(c2cccc(C(F)(F)F)c2)C2=C(CCN(c3cnn(C)c3)C2=O)Nc2n[nH]cc21` (centres unmarked) [Compound 949270], the results for the IC50 in assay [1] (setting [5]) and in assay [2] (setting [6]) were ≤ 100 nM and 100 to 1000 nM, respectively.
Taken in the same sequence, the figures for `CC[C@]1(c2cccc(C(F)(F)F)c2)C2=C(CCN(c3cnn(C)c3)C2=O)Nc2n[nH]cc21` [Compound 949271] were 100 to 1000 nM and > 5000 nM.
`CCC1(c2cccc(C(F)(F)F)c2)C2=C(CCN(c3ccccn3)C2=O)Nc2n[nH]cc21` (centres unmarked) [Compound 949310]: the IC50 was ≤ 100 nM in assay [1] (setting [5]), 100 to 1000 nM in assay [1] (setting [7]), 100 to 1000 nM in assay [2] (setting [6]) and > 5000 nM in assay [2] (setting [8]).
On to `Cc1cnccc1[C@H]1CC[C@@]2(CC1)C1=C(CC(C)(C)CC1=O)Nc1n[nH]cc12` [Compound 949318], for which the IC50 in assay [1] (setting [3]) and in assay [2] (setting [4]) was 100 to 1000 nM throughout.
On to `Cc1cnccc1[C@H]1CC[C@]2(CC1)C1=C(CC(C)(C)CC1=O)Nc1n[nH]cc12` [Compound 949319], for which the IC50 in assay [1] (setting [3]) and in assay [2] (setting [4]) was ≤ 100 nM each time.
`CC1(C)CC(=O)C2=C(C1)Nc1n[nH]cc1[C@]21CC[C@@H](c2ccncc2)CC1` [Compound 949320]: the IC50 in assay [1] (setting [3]) lay within 100 to 1000 nM; in assay [2] (setting [4]), 1000 to 5000 nM.
In the case of `CC1(C)CC(=O)C2=C(C1)Nc1n[nH]cc1[C@]21CC[C@H](c2ccncc2)CC1` [Compound 949321], the IC50 in assay [1] (setting [3]) and in assay [2] (setting [4]) was ≤ 100 nM each time.
Consider `Cn1cc([C@H]2CC[C@@]3(CC2)C2=C(CC(C)(C)CC2=O)Nc2n[nH]cc23)cn1` [Compound 949322], for which the IC50 in assay [1] (setting [3]) lay within 100 to 1000 nM; in assay [2] (setting [4]), 1000 to 5000 nM.
For the molecule `Cn1cc([C@H]2CC[C@]3(CC2)C2=C(CC(C)(C)CC2=O)Nc2n[nH]cc23)cn1` [Compound 949323], the figures for the IC50 in assay [1] (setting [5]) and in assay [2] (setting [6]) were 1000 to 5000 nM and > 5000 nM, respectively.
For the molecule `CCC1(c2cccc(-c3ccncc3F)c2)C2=C(CC(C)(C)NC2=O)Nc2n[nH]c(Cl)c21` (centres unmarked) [Compound 949324], the IC50 in assay [1] (setting [5]) is ≤ 100 nM; in assay [1] (setting [7]), 100 to 1000 nM; in assay [2] (setting [6]), ≤ 100 nM; in assay [2] (setting [8]), 1000 to 5000 nM.
With `CC[C@]1(c2cccc(OC)c2)C2=C(CC(C)(C)NC2=O)Nc2n[nH]c(C)c21` [Compound 949328], the figures for the IC50 in assay [1] (setting [5]) and in assay [2] (setting [6]) were 1000 to 5000 nM and > 5000 nM, respectively.
Take `CC[C@]1(c2cccc(-c3cn(C)nc3C)c2)C2=C(CC(C)(C)NC2=O)Nc2n[nH]c(Cl)c21` [Compound 949329]: the IC50 in assay [1] (setting [5]) was 1000 to 5000 nM; in assay [2] (setting [6]), > 5000 nM.
For the molecule `CC[C@]1(c2cccc(Oc3ncccn3)c2)C2=C(CC(C)(C)NC2=O)Nc2n[nH]cc21` [Compound 949330], the values for the IC50 in assay [1] (setting [5]) and in assay [2] (setting [6]) were ≤ 100 nM and 100 to 1000 nM, respectively.
On to `CC[C@@]1(c2cccc(-c3cc(C)nnc3C)c2)C2=C(CC(C)(C)NC2=O)Nc2n[nH]cc21` [Compound 949334], for which the IC50 in assay [1] (setting [5]) was 1000 to 5000 nM; in assay [2] (setting [6]) it was > 5000 nM.
As for `CC[C@@]1(c2cccc(Oc3ncccn3)c2)C2=C(CC(C)(C)NC2=O)Nc2n[nH]cc21` [Compound 949335], the IC50 in assay [1] (setting [5]) and in assay [2] (setting [6]) was > 5000 nM in each case.
`CCC1(c2cccc(-c3cn(C)nc3C)c2)C2=C(CC(C)(C)NC2=O)Nc2n[nH]c(Cl)c21` (centres unmarked) [Compound 949336]: the IC50 in assay [1] (setting [5]) is ≤ 100 nM; in assay [1] (setting [7]) it was ≤ 100 nM; in assay [2] (setting [6]) it was ≤ 100 nM; in assay [2] (setting [8]) it was 100 to 1000 nM.
`CC[C@@]1(c2cccc(OC)c2)C2=C(CC(C)(C)NC2=O)Nc2n[nH]c(C)c21` [Compound 949337]: the IC50 in assay [1] (setting [5]) is 100 to 1000 nM; in assay [2] (setting [6]), 1000 to 5000 nM.
With `CCC1(c2cccc(C(F)(F)F)c2)C2=C(CC(C)N(c3cnc(OC)nc3)C2=O)Nc2n[nH]cc21` (centres unmarked) [Compound 949351], the IC50 in assay [1] (setting [5]) is ≤ 100 nM; in assay [2] (setting [6]), 100 to 1000 nM.
On to `CCC1(c2cccc(C(F)(F)F)c2)C2=C(CC(C)N(c3cnc(OC)nc3)C2=O)Nc2n[nH]cc21` (centres unmarked) [Compound 949352], for which the IC50 in assay [1] (setting [5]) is ≤ 100 nM; in assay [1] (setting [7]), 100 to 1000 nM; in assay [2] (setting [6]), ≤ 100 nM; in assay [2] (setting [8]) it was 1000 to 5000 nM.
On to `CC[C@@]1(c2cccc(C(F)(F)F)c2)C2=C(C[C@H](C)N(c3cnc(OC)nc3)C2=O)Nc2n[nH]cc21` [Compound 949354], for which the figures for the IC50 in assay [1] (setting [5]) and in assay [2] (setting [6]) were 100 to 1000 nM and 1000 to 5000 nM, respectively.
Taken in the same sequence, the figures for `CC[C@@]1(c2cccc(-c3ccnc(C(F)F)c3)c2)C2=C(CC(C)(C)NC2=O)Nc2n[nH]cc21` [Compound 949388] were 1000 to 5000 nM and > 5000 nM.
Regarding `CCC1(c2cccc(-c3cnn4cccnc34)c2)C2=C(CC(C)(C)NC2=O)Nc2n[nH]cc21` (centres unmarked) [Compound 949389], the IC50 is 1000 to 5000 nM in assay [1] (setting [5]) and > 5000 nM in assay [2] (setting [6]).
As for `CCc1cccc(C2(CC)C3=C(CC(C)(C)CC3=O)Nc3n[nH]cc32)c1` (centres unmarked) [Compound 949391], the IC50 in assay [1] (setting [3]) is 1000 to 5000 nM; in assay [2] (setting [4]), > 5000 nM.
For `CC[C@@]1(c2cccc(-c3c(C)ccc4c(C)cccc34)c2)C2=C(CC(C)(C)NC2=O)Nc2n[nH]c(F)c21` [Compound 949392], the IC50 was 1000 to 5000 nM in assay [1] (setting [5]) and > 5000 nM in assay [2] (setting [6]).
In the case of `CCC1(c2cccc(-c3cnn(C4CC4(F)F)c3)c2)C2=C(CC(C)(C)NC2=O)Nc2n[nH]cc21` (centres unmarked) [Compound 949393], the IC50 in assay [1] (setting [5]) was 1000 to 5000 nM; in assay [2] (setting [6]), > 5000 nM.
On to `CC[C@]1(c2cccc(-c3ccnn3C)c2)C2=C(CC3(CCS(=O)(=O)CC3)NC2=O)Nc2n[nH]cc21` [Compound 949394], for which the results for the IC50 in assay [1] (setting [5]) and in assay [2] (setting [6]) were ≤ 100 nM and 100 to 1000 nM, respectively.
Regarding `CCC1(c2cccc(-c3cnn(C)c3F)c2)C2=C(CC(C)(C)NC2=O)Nc2n[nH]cc21` (centres unmarked) [Compound 949395], the results for the IC50 in assay [1] (setting [5]) and in assay [2] (setting [6]) were 1000 to 5000 nM and > 5000 nM, respectively.
Take `CC[C@@]1(c2cccc(-c3ccnn3-c3ccc(F)cc3)c2)C2=C(CC(C)(C)NC2=O)Nc2n[nH]cc21` [Compound 949396]: the IC50 in assay [1] (setting [5]) and in assay [2] (setting [6]) was > 5000 nM throughout.
In the case of `CCC1(c2cccc(C3CCCC3)c2)C2=C(CC(C)(C)CC2=O)Nc2n[nH]cc21` (centres unmarked) [Compound 949397], the IC50 lay in the range of 100 to 1000 nM in assay [1] (setting [7]) and 1000 to 5000 nM in assay [2] (setting [8]).
Regarding `CCC1(c2cccc(-c3c(C)cnc4ccccc34)c2)C2=C(CC(C)(C)NC2=O)Nc2n[nH]cc21` (centres unmarked) [Compound 949398], the IC50 in assay [1] (setting [5]) is ≤ 100 nM; in assay [2] (setting [6]), 100 to 1000 nM.
In the case of `CC[C@]1(c2cccc(C3CCCC3)c2)C2=C(CC(C)(C)CC2=O)Nc2n[nH]cc21` [Compound 949399], the IC50 is 1000 to 5000 nM in assay [1] (setting [5]) and > 5000 nM in assay [2] (setting [6]).
For the molecule `CC[C@@]1(c2cccc(-c3ccnn3C)c2)C2=C(CC3(CCS(=O)(=O)CC3)NC2=O)Nc2n[nH]cc21` [Compound 949400], the IC50 in assay [1] (setting [5]) was 1000 to 5000 nM; in assay [2] (setting [6]) it was > 5000 nM.
Take `CC[C@]1(c2cccc(-c3ccnc(C)c3)c2)C2=C(CC(C)(C)NC2=O)Nc2n[nH]c(Cl)c21` [Compound 949421]: the IC50 in assay [1] (setting [5]) is 100 to 1000 nM; in assay [2] (setting [6]) it was > 5000 nM.
Turning to `CC[C@@]1(c2cccc(-c3ccnc(C)c3)c2)C2=C(CC(C)(C)NC2=O)Nc2n[nH]c(Cl)c21` [Compound 949422], the IC50 is ≤ 100 nM in assay [1] (setting [5]), 100 to 1000 nM in assay [1] (setting [7]), ≤ 100 nM in assay [2] (setting [6]) and 1000 to 5000 nM in assay [2] (setting [8]).
